Measurements as given in patent publication US5300672A (priority 1992, dated 1994).
In brackets after ≈: the same amount, converted by molar mass. Like-named read-outs stand apart in the source and are kept apart here.

How the values were obtained:
Aspergillus niger [1] = experiment: Broth two-fold serial dilution MIC test (Table 3), A.n; format: cell-based; conditions: dilution series 500 to 4 ppm
Source text: (§1) A minimum inhibitory concentration (MIC) value is obtained using a broth, two-fold serial dilution test performed as follows: A stock solution or dispersion of the test compound, typically at a concentration of 1%, is made in a 5:3:2 solvent solution of acetone, methanol, and water. A volume of the stock solution is dispensed into culture media to give an initial starting test concentration of 500 ppm compound.
(§2) When the test is ready to be done, each vessel in the dilution series, except the first vessel, contains an equal volume of compound free broth. The first vessel contains twice the volume of broth with the starting concentration of test compound. One half of the broth from the first vessel is transferred to the second vessel. After being mixed, one half the resulting volume is removed from the second vessel and transferred to the third vessel. The entire cycle is repeated sufficiently to give a series of concentrations amounting to 500, 250, 125, 63, 31, 16, 8, and 4 ppm, respectively.
(§3) Each vessel is then inoculated with a cell suspension of the appropriate test organism. Bacteria are grown in broth and fungi on agar slants for a time and at a temperature appropriate to the species being tested. At the end of the growth period, the broth is vortexed to disperse the cells. In the case of fungi, the spores are harvested by pipetting water onto the slant and dislodging the spores with a sterile loop. The cell/spore suspension is standardized by controlling incubation time, temperature, and the volume of the diluent. The suspension is then used to inoculate the vessels containing the broth compound. The vessels are then incubated at the appropriate temperature. After the incubation, the vessels are examined for growth/no growth. The minimum inhibitory concentration (MIC) is defined as the lowest concentration of compound that results in complete inhibition of growth of the test organism.

Aureobasidium pullulans [2] = experiment: Broth two-fold serial dilution MIC test (Table 3), A.p; format: cell-based; conditions: dilution series 500 to 4 ppm
Source text: as §1, §2, §3
Aureobasidium pullulans (A.p)

Escherichia coli [3] = experiment: Broth two-fold serial dilution MIC test (Table 3), E.c; format: cell-based; conditions: gram negative, dilution series 500 to 4 ppm
Source text: as §1, §2, §3
Escherichia coli (E.c), gram negative

Pseudomonas aerugenosa [4] = experiment: Broth two-fold serial dilution MIC test (Table 3), Ps.ae; format: cell-based; conditions: gram negative, dilution series 500 to 4 ppm
Source text: as §1, §2, §3
Pseudomonas aerugenosa (Ps.ae), gram negative

Pseudomonas fluorescens [5] = experiment: Broth two-fold serial dilution MIC test (Table 3), Ps.fl; format: cell-based; conditions: gram negative, dilution series 500 to 4 ppm
Source text: as §1, §2, §3
Pseudomonas fluorescens (Ps.fl), gram negative

Staphylococcus aureus [6] = experiment: Broth two-fold serial dilution MIC test (Table 3), S.a; format: cell-based; conditions: gram positive, dilution series 500 to 4 ppm
Source text: as §1, §2, §3
Staphylococcus aureus (S.a), gram positive

[7] = tested on: Pseudoperonospora cubensis; experiment: whole plant or invertebrate; format: in vivo; conditions: Pseudoperonospora cubensis, in Cucumis sativus, 168 h; read-out: % Control CDM
Piricularia oryzae = experiment: whole plant or invertebrate; format: in vivo; conditions: Pyricularia oryzae
Phytophthora infestans = experiment: whole plant or invertebrate; format: in vivo; conditions: Phytophthora infestans, in Solanum lycopersicum, 96 h; for pest or weed control at 200 ppm: read-out: % Control TLB, application rate 200 ppm
[8] = tested on: Puccinia recondita (f. sp. tritici Races PKB and PLD); experiment: whole plant or invertebrate; format: in vivo; conditions: Puccinia recondita, 240 h; read-out: % Control WLR
[9] = tested on: Erysiphe graminis (f. sp. tritici); experiment: whole plant or invertebrate; format: in vivo; conditions: Blumeria graminis; read-out: % Control WPM
[10] = tested on: Puccinia graminis (f. sp. tritici Race 15B-2); experiment: whole plant or invertebrate; format: in vivo; conditions: Puccinia graminis, 336 h, read-out: % Control WSR
Pythium ultimum = Pythium ultimum in vitro Fungitoxicity Assay in liquid culture; format: cell-based, Pythium ultimum (ATCC 26083); conditions: Globisporangium ultimum; mycelial dry weight, 48 h at 25° C., shaking at 60 rpm; read-out: EC 50
Description: Selected compounds of Examples 1-120 were subjected also to the following in vitro fungitoxicity assay against Pythium ultimum in a liquid culture, with the results as indicated in Table 6.
Pythium ultimum Fungitoxicity Assay
A dilution series of the test compound was prepared in dimethylsulfoxide, and 0.1 ml of each dilution was added to 19.9 ml of a liquid asparagine-sucrose medium (D. C. Erwin and K. Katznelson (1971), Can. J. Microbiol. 7, 15) in 9 cm diameter petri dishes to give the desired final concentrations of test compound. Plates were inoculated with mycelial plugs, 7 mm diameter, taken from the growing edge of 48 h old cultures of Pythium ultimum, (ATCC 26083), grown on potato dextrose agar. Two replicate plates were used for each treatment. The increase in mycelial dry weight was determined after growth for 48 h at 25° C. with shaking at 60 rpm. EC50 values were calculated from dose response curves.

Pseudomonas fluorescens [11] = experiment: Alternate Minimum Inhibitory Concentrations Test (Table 4), Ps.fl; format: cell-based; conditions: Pseudomonas fluorescens, read-out: MIC Ps.fl
In short: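 Broth microdilution MIC in TSB: compound (from acetone stock) serially diluted 1:1 from 250 ppm to 0.8 ppm, inoculated with diluted 24 h culture. After 3 days at 30 °C, the lowest concentration with no growth was recorded as MIC.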

Aspergillus niger [12] = experiment: Alternate Minimum Inhibitory Concentrations Test (Table 4), A.n; format: cell-based; conditions: Table 4 alternate test, 250 ppm to 0.8 ppm in TSB
Aureobasidium pullulans [13] = experiment: Alternate Minimum Inhibitory Concentrations Test (Table 4), A.p; format: cell-based; conditions: Table 4 alternate test, 250 ppm to 0.8 ppm in TSB
Candida albicans = experiment: Alternate Minimum Inhibitory Concentrations Test (Table 4), C.alb; format: cell-based; conditions: Table 4 alternate test, 250 ppm to 0.8 ppm in TSB
Escherichia coli [14] = experiment: Alternate Minimum Inhibitory Concentrations Test (Table 4), E.c; format: cell-based; conditions: Table 4 alternate test, 250 ppm to 0.8 ppm in TSB
Pseudomonas aerugenosa [15] = experiment: Alternate Minimum Inhibitory Concentrations Test (Table 4), Ps.ae; format: cell-based; conditions: Table 4 alternate test, 250 ppm to 0.8 ppm in TSB
Staphylococcus aureus [16] = experiment: Alternate Minimum Inhibitory Concentrations Test (Table 4), S.a; format: cell-based; conditions: Table 4 alternate test, 250 ppm to 0.8 ppm in TSB
[17] = Table 4 alternate test, 250 ppm to 0.8 ppm in TSB, 72 hours, 30° C.

Work on CCCCCCCCNC(=O)/C=C\SC(=O)c1ccc(C)cc1C [Compound 43, N-octyl-cis-3-[(2,4-dimethylbenzoyl)thio]acrylamide] yielded an MIC (Aspergillus niger [1]) greater than 500 µg/mL, an MIC (Aureobasidium pullulans [2]) of 16 µg/mL (≈ 46 µM) and an MIC (Escherichia coli [3]) greater than 500 µg/mL. It also gave an MIC (Pseudomonas aerugenosa [4]) greater than 500 µg/mL, an MIC (Pseudomonas fluorescens [5]) greater than 500 µg/mL and an MIC (Staphylococcus aureus [6]) greater than 500 µg/mL. The pest or weed control at 50 ppm [7] was 50%, the pest or weed control at 100 ppm (Piricularia oryzae; read-out: % Control RB, application rate 100 ppm) was 0% and the pest or weed control at 100 ppm (Phytophthora infestans; read-out: % Control TLB, application rate 100 ppm) was 0%. It also gave a pest or weed control at 100 ppm [8] of 0%, a pest or weed control at 100 ppm [9] of 0% and a pest or weed control at 200 ppm [10] of 50%. For the same compound, the EC50 (Pythium ultimum) was 5.2 µg/mL (≈ 15 µM).
Compound CCCCCCCCNC(=O)/C=C\SC[C@H](N)C(=O)O [Compound 47, N-octyl-cis-3-[(2-amino-2-carboxyethane)thio]acrylamide] has an MIC (Aspergillus niger [1]) greater than 500 µg/mL, an MIC (Aureobasidium pullulans [2]) greater than 500 µg/mL and an MIC (Escherichia coli [3]) greater than 500 µg/mL. It also gave an MIC (Pseudomonas aerugenosa [4]) greater than 500 µg/mL, an MIC (Pseudomonas fluorescens [5]) greater than 500 µg/mL and an MIC (Staphylococcus aureus [6]) greater than 500 µg/mL. It also gave an MIC (Pseudomonas fluorescens [11]; [17]) greater than 250 µg/mL, a pest or weed control at 12 ppm [7] of 70% and a pest or weed control at 50 ppm (Piricularia oryzae; read-out: % Control RB, application rate 50 ppm) of 0%. For the same compound, the pest or weed control at 100 ppm (Phytophthora infestans; read-out: % Control TLB) was 90% and the pest or weed control at 50 ppm [10] was 90%.
In the case of CCCCCCCCNC(=O)/C=C\SC(=O)c1ccc([N+](=O)[O-])c(OC)c1 [Compound 105, N-octyl-cis-3-[(3-methoxy-4-nitrobenzoyl)thio]acrylamide], the MIC (Aspergillus niger [12]) is reported as 24 µg/mL (≈ 60.8 µM), the MIC (Aureobasidium pullulans [13]) is reported as less than 2 µg/mL and the MIC (Candida albicans) is reported as less than 2 µg/mL. For the same compound, the MIC (Escherichia coli [14]) was greater than 250 µg/mL, the MIC (Pseudomonas aerugenosa [15]) was greater than 250 µg/mL and the MIC (Pseudomonas fluorescens [11]; [17]) was no less than 125 µg/mL. It also gave an MIC (Staphylococcus aureus [16]) greater than 250 µg/mL, a pest or weed control at 200 ppm [7] of 90% and a pest or weed control at 200 ppm (Phytophthora infestans) of 0%. The pest or weed control at 200 ppm [8] was 0% and the pest or weed control at 200 ppm [9] was 0%.
C#CCNC(=O)/C=C\SC(=O)c1ccccc1 [Compound 113, N-(2-propynyl)-cis-3-(benzoylthio)acrylamide] showed an MIC (Aspergillus niger [12]) of no less than 250 µg/mL, an MIC (Aureobasidium pullulans [13]) of 31 µg/mL (≈ 126 µM) and an MIC (Candida albicans) of no less than 125 µg/mL. It also gave an MIC (Escherichia coli [14]) of 31 µg/mL (≈ 126 µM), an MIC (Pseudomonas aerugenosa [15]) of 125 µg/mL (≈ 510 µM) and an MIC (Pseudomonas fluorescens [11]; [17]) of 63 µg/mL (≈ 257 µM). For the same compound, the MIC (Staphylococcus aureus [16]) was 63 µg/mL (≈ 257 µM), the pest or weed control at 200 ppm [7] was 50% and the pest or weed control at 200 ppm (Piricularia oryzae; read-out: % Control RB, application rate 200 ppm) was 0%. It also gave a pest or weed control at 200 ppm (Phytophthora infestans) of 0%, a pest or weed control at 50 ppm [8] of 25% and a pest or weed control at 200 ppm [9] of 0%. The EC50 (Pythium ultimum) was 6.9 µg/mL (≈ 28.1 µM).
CCCCCCCCNC(=O)/C=C\SC(=O)c1ccc(CCCC)cc1 [Compound 115, N-octyl-cis-3-[(4-butylbenzoyl)thio]acrylamide] showed an MIC (Aspergillus niger [1]) greater than 500 µg/mL, an MIC (Aureobasidium pullulans [2]) of no less than 250 µg/mL and an MIC (Escherichia coli [3]) greater than 500 µg/mL. The MIC (Pseudomonas aerugenosa [4]) was greater than 500 µg/mL, the MIC (Pseudomonas fluorescens [5]) was greater than 500 µg/mL and the MIC (Staphylococcus aureus [6]) was greater than 500 µg/mL. It also gave an MIC (Pseudomonas fluorescens [11]; 72 h) greater than 250 µg/mL and a pest or weed control at 200 ppm (Phytophthora infestans) of 0%.
O=C(/C=C\SC(=O)c1ccccc1)NCCN1CCOCC1 [Compound 116, N-[2-(4-morpholine)ethyl]-cis-3-(benzoylthio)acrylamide] showed an MIC (Pseudomonas fluorescens [11]; [17]) greater than 250 µg/mL, a pest or weed control at 200 ppm [7] of 0% and a pest or weed control at 12 ppm (Piricularia oryzae; read-out: % Control RB, application rate 12 ppm) of 50%. It also gave a pest or weed control at 200 ppm (Phytophthora infestans) of 0%, a pest or weed control at 200 ppm [8] of 0% and a pest or weed control at 200 ppm [9] of 0%. For the same compound, the EC50 (Pythium ultimum) was 10.3 µg/mL (≈ 32.1 µM).
